The values below come from ChEMBL document CHEMBL5543082, “In vitro and in vivo anti-pigmentation effects of 2-mercaptobenzimidazoles as nanomolar tyrosinase inhibitors on mammalian cells and zebrafish embryos: Preparation of pigment-free zebrafish embryos” (Eur J Med Chem, 2024).

The target of data set [1] is T1, Mushroom tyrosinase (Agaricus bisporus, UniProt O42713+Q00024+C7FF04+C7FF05). The data set is described as follows: Inhibition of mushroom tyrosinase monophenolase activity using L-tyrosine as substrate incubated for 0.5 hrs. It counts as protein assay.
Data set [2] is described as follows: Antioxidant activity assessed as reduction in H2O2 induced hydroxyl radical production at 40 uM. The class given is functional.
Data set [3] relates to Danio rerio. The data set can be described thus: Depigmentation activity in zebrafish embryos administered at 21 hpf and measured after 69 hpf. It counts as functional, organism-based. The settings on record: dose 0.01-0.4 mM, time […].
Data set [4] can be described thus: Antioxidant activity assessed as peroxynitrite scavenging activity by measuring rhodamine 123 fluorescence intensity at 50 uM in presence of SIN-1. It counts as functional.
Data set [5] in a line: Antioxidant activity assessed as reduction in FeSO4 induced hydroxyl radical production at 40 uM. The class given is functional.
Data set [6] has as its target T1, Mushroom tyrosinase. The data set can be described thus: Inhibition of mushroom tyrosinase diphenolase activity using L-dopa as substrate incubated for 0.5 hrs. It counts as protein assay.
Data set [7] concerns the target T2, Tyrosinase (Mus musculus) (UniProt P11344).
T2 sequence (whole entry): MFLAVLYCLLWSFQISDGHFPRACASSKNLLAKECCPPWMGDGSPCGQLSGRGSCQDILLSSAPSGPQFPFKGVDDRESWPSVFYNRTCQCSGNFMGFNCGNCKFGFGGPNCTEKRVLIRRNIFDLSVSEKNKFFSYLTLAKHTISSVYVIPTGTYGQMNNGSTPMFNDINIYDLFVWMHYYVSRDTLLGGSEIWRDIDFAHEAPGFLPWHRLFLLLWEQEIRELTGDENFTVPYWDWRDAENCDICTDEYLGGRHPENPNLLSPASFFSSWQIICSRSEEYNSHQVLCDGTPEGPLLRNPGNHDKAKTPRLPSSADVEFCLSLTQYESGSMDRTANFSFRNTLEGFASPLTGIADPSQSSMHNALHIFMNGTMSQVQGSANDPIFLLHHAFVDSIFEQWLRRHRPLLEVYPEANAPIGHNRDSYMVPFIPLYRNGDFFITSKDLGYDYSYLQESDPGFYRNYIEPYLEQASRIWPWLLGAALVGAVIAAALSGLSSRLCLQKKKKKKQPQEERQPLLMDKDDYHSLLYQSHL
The data set is described as follows: Inhibition of tyrosinase activity in mouse B16-F10 cells preincubated for 1 hr followed by alpha-MSH and IBMX addition and measured after 72 hrs. It counts as cell-based. The settings on record: time 73.0 hrs.

The subject of data set [8] is B16-F10. The data set can be described thus: Inhibition of melanin production in mouse B16-F10 cells preincubated for 1 hr followed by alpha-MSH and IBMX addition and measured after 72 hrs. The class given is functional, cell-based. The settings on record: dose 5-20 µM, time 73.0 hrs.
For data set [9], the system named is B16-F10. The data set is described as follows: Cytotoxicity against mouse B16-F10 cells at <= 20 uM after 72 hrs by EZ-Cytox solution based microplate reader assay. To be noted: b16-f10, 72 h. The class given is toxicity, cell-based.
The test system of data set [10] is HaCaT. The data set can be described thus: Cytotoxicity against human HaCaT cells at <= 20 uM after 24 hrs by EZ-Cytox solution based microplate reader assay. The class given is toxicity, cell-based.

Active and inactive are the calls of the source. The calls are words filed in the database; no cut-off is given here.

With `N#Cc1ccc2[nH]c(S)nc2c1`, the IC50 is 110 nM in data set [1] and 40 nM in data set [6]. The result in [2] and in data set [5] was inactive. Also, the Activity entry in data set [3] is “Dose-Dependent Effect”. Moreover, the result in data set [4] was Active.
In the case of `Fc1ccc2[nH]c(S)nc2c1`, the result in data set [2] and in [5] was inactive. Further, in [3], the Activity entry is “Dose-Dependent Effect”.
With `Sc1nc2ccccc2[nH]1`, the result in [2] and in data set [5] was inactive. Besides, the Activity result in data set [3] is “Dose-Dependent Effect”.
In the case of `Cc1ccc2[nH]c(=S)[nH]c2c1`, the outcome in data set [2] and in data set [5] was inactive. For the same molecule, the Activity entry in data set [3] is “Dose-Dependent Effect”. In addition, the inhibition result in data set [7] and in data set [8] was “Dose-Dependent Effect” throughout.
`O=[N+]([O-])c1ccc2[nH]c(S)nc2c1`: the outcome in [2] and in [5] was inactive. The Activity result in data set [3] was “Dose-Dependent Effect”.
In the case of `CC(C)(S)[C@@H](N)C(=O)O`, in [4], the outcome was Active.
In the case of `Cc1cccc2[nH]c(=S)[nH]c12`, the IC50 is 5780 nM in data set [1] and 740 nM in data set [6]. The result in data set [2] and in data set [5] was inactive. For the same molecule, the Activity result in data set [3] was “Dose-Dependent Effect”.
On to `O=C(c1ccccc1)c1ccc2[nH]c(S)nc2c1`, for which the figures for the IC50 in data set [1] and in [6] were 100 nM and 20 nM, respectively. The result in [2] and in [5] was inactive. Also, the Activity entry in data set [3] was “Dose-Dependent Effect”. The outcome in data set [4] was Active. Besides, the inhibition entry in [7] and in data set [8] was “Dose-Dependent Effect” each time.
Regarding `COc1ccc2[nH]c(S)nc2c1`, the result in data set [2] and in [5] was inactive. In data set [3], the Activity entry was “Dose-Dependent Effect”.
Consider `Cc1cc2nc(S)[nH]c2cc1C`, for which the result in [2] and in data set [5] was inactive. The Activity result is “Non-Toxic” in [9], “Dose-Dependent Effect” in [3] and “Non-Toxic” in data set [10]. For the same molecule, the inhibition entry in [7] and in data set [8] was “Dose-Dependent Effect” each time.
Take `O=C(c1ccccc1)c1ccc2[nH]c(=S)[nH]c2c1`: the Activity result in data set [9] and in data set [10] was “Non-Toxic” in each case.
`Cc1c(C)c2c(c(C)c1O)CCC(C)(C(=O)O)O2` (centres undefined): the result in data set [2], in [4] and in [5] was Active.
Take `Sc1nc2cc(Cl)ccc2[nH]1`: the result in data set [2] and in [5] was inactive. For the same molecule, the values for the Activity result in data set [9], in data set [3] and in [10] were “Non-Toxic”, “Dose-Dependent Effect” and “Non-Toxic”, respectively. In addition, the outcome in data set [4] was Active. Moreover, the inhibition result in data set [7] and in data set [8] was “Dose-Dependent Effect” throughout.
Take `Cc1ccc2[nH]c(S)nc2c1`: the Activity result in data set [9] and in [10] was “Non-Toxic” each time.
